Legend:
[1] = system: dispersed rat pituitary cell superfusion system; assay: LH release in dispersed rat pituitary cell superfusion system (LHRH agonistic activity); format: cell-based; conditions: peptide infused for 3 minutes at various concentration; LH released compared to that released by 3 nM LHRH
Method: The ability of compounds to influence LH release in vitro is assayed by using a superfused rat pituitary cell system [S. Vigh and A. V. Schally, Peptides, 5 Suppl.
The peptide was infused for 3 minutes at various concentration, and the amount of LH released was compared to that released by 3 nM LHRH.

[2] = target: T1, membrane receptors of rat pituitary (Rattus norvegicus, UniProt P30969); assay: Receptor binding to rat pituitary membranes with 125I-labeled [D-Trp6]LHRH; conditions: high affinity binding sites, pituitary of male rats, ¹²⁵l-labeled [D-Trp⁶]LHRH
T1 construct: membrane receptors of rat pituitary; from tissue; host or cells: rat pituitary membranes
T1 sequence (P30969 1-327): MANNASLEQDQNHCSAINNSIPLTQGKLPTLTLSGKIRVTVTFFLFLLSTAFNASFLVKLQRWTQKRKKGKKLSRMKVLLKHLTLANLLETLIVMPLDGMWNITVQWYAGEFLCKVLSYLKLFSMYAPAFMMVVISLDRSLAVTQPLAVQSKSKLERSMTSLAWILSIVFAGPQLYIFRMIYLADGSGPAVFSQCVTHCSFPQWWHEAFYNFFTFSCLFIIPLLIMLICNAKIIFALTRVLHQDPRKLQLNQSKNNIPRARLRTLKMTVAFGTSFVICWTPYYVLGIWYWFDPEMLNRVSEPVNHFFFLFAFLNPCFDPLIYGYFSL
Method: (§1) This is determined by using labelled LHRH and [D-Trp⁶]LHRH. The assay is carried out similarly to that described by T. Kadar et al., Proc. Natl. Acad. Sci. USA, 85, 890-894 (1988).
(§2) Table 2 presents the antiovulatory activity of the claimed compounds having LHRH-inhibiting properties. The inhibitory action was determined in vivo, in 4-day cycling rats as described [A. Corbin and C. W. Beattie, Endocr. Res. Commun., 2, 1-23 (1975)]. Affinities of the claimed compounds to membrane receptors of rat pituitary and human breast cancer cells are also given in Tables 1 and 2 as determined by using [[…],D-Trp⁶]LHRH.

[3] = target: T2, membrane receptors of human breast cancer cells (Homo sapiens, UniProt P30968); assay: Receptor binding to human breast cancer cell membranes with 125I-labeled [D-Trp6]LHRH; conditions: high affinity binding sites, ¹²⁵l-labeled [D-Trp⁶]LHRH
T2 construct: human prostate and breast cancer cell membranes; endogenous in cells
T2 sequence (P30968 1-328): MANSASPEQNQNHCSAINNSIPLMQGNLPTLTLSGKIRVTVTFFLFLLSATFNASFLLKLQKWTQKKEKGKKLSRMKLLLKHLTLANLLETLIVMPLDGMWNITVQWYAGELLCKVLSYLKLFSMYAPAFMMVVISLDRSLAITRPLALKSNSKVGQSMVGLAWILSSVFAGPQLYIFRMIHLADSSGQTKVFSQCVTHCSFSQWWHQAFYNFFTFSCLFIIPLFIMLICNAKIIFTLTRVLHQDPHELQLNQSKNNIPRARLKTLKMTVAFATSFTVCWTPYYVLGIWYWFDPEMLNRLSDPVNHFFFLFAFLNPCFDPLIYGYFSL
Method: (c)Affinity for peptides to human prostate and breast cancer cell membranes.
as §1, §2

[4] = system: rat mammary tumor cell line MT-4; assay: Inhibition of 3H-thymidine incorporation into DNA of MT-4 monolayer cultures; format: cell-based; conditions: for DPM/Well x1000: mean +/- standard error
Method: (d) Ability of peptides of Formula I to inhibit incorporation of [³H]thymidine into DNA of monolayer cultures the rat mammary tumor cell line MT-4
This is assayed as described [V. K. Sondak et al., Cancer Research, 44, 1725-1728 (1984); F. Holzel et al., J. Cancer Res. Clin. Oncol. 109, 217-226 (1985); M. Albert et al., J. Cancer Res. Clin. Oncol. 109, 210-216 (1985)].
To obtain information about the cytotoxic properties of the compounds, the inhibition of ³H-thymidine incorporation into DNA of monolayer cultures of the rat mammary tumor cell line MT-4 was studied. Experiments started with 100 K MT-4 cells/plate on day 0. Dose was changed 3 times, total incubation time with the sample was 5 days. 1µCu ³H-thymidine/ml was added on day 4.

[5] = system: 4-day cycling rats; assay: In vivo antiovulatory activity in 4-day cycling rats; conditions: Dose 3 µg/rat; 4-day cyclic rats
Method: This activity of the peptides is determined in 4-day-cycling rats as described [A. Corbin and C. W.Beattie, Endocr. Res. Commun. 2, 1-23(1975)].
as §2

[6] = DME Medium + 0% Serum (plus additives), Dose 1 ng/ml (6x10⁻¹⁰M)
[7] = DME Medium + 0% Serum (plus additives), Dose 10 ng/ml
[8] = DME Medium + 0% Serum (plus additives), Dose 100 ng/ml
[9] = DME Medium + 0% Serum (plus additives), Dose 1000 ng/ml
[10] = DME Medium + 0% Serum (plus additives), Dose 2000 ng/ml
[11] = DME Medium + 10% Serum, Dose 1 ng/ml (6x10⁻¹⁰M)
[12] = DME Medium + 10% Serum, Dose 10 ng/ml
[13] = DME Medium + 10% Serum, Dose 100 ng/ml
[14] = DME Medium + 10% Serum, Dose 1000 ng/ml
[15] = DME Medium + 10% Serum, Dose 2000 ng/ml
[16] = Table 2, antagonistic analogues

In the case of “pGlu-His-Trp-Ser-Tyr-D-Lys [(Ni⁺⁺)(CISAL)₂(D-A₂pr)]-Leu-Arg-Pro-Gly-NH₂ [Example X]”, the “Hormonal activity* LH responses rel. to LHRH (= 1)” value [1] is reported as 4, the “Binding affinity, Ka1, for membrane receptors of pituitary” value (“Binding affinity, Ka1 … of pituitary” below) ([2]; Table 1, agonistic analogues) is reported as 4.513 nM⁻¹ and the “Binding affinity, Ka1, for membrane receptors of cancer cells” value (from here on “Binding affinity, Ka1 … of cancer cells”) ([3]; Table 1, agonistic analogues) is reported as 2.236 nM⁻¹.
In the case of “pGlu-His-Trp-Ser-Tyr-D-Lys[(Cu⁺⁺)(SAL) ₂(A₂pr)]-Leu-Arg-Pro-Gly-NH₂ [Example VII]”, the “Hormonal activity* LH responses rel. to LHRH (= 1)” value [1] is reported as 10, the “Binding affinity, Ka1 … of pituitary” value ([2]; Table 1, agonistic analogues) is reported as 7.968 nM⁻¹ and the “Binding affinity, Ka1 … of cancer cells” value ([3]; Table 1, agonistic analogues) is reported as 3.589 nM⁻¹. The “%Inhibition” value [4, 6] was 41%, the “DPM/Well x1000” value [4, 6] was 249+/-30.5 DPM/Well x1000 and the “%Inhibition” value [4, 7] was 42%. For the same substance, the “DPM/Well x1000” value [4, 7] was 242+/-32.1 DPM/Well x1000, the “%Inhibition” value [4, 8] was 56% and the “DPM/Well x1000” value [4, 8] was 186+/-13.2 DPM/Well x1000. The “%Inhibition” value [4, 9] was 52%, the “DPM/Well x1000” value [4, 9] was 204+/-40.9 DPM/Well x1000 and the “%Inhibition” value [4, 10] was 41%. For the same substance, the “DPM/Well x1000” value [4, 10] was 249+/-45.1 DPM/Well x1000, the “%Inhibition” value [4, 11] was 53% and the “DPM/Well x1000” value [4, 11] was 48+/-8.6 DPM/Well x1000. For the same substance, the “%Inhibition” value [4, 12] was 61%, the “DPM/Well x1000” value [4, 12] was 40+/-6.7 DPM/Well x1000 and the “%Inhibition” value [4, 13] was 59%. The “DPM/Well x1000” value [4, 13] was 42+/-10.4 DPM/Well x1000, the “%Inhibition” value [4, 14] was 65% and the “DPM/Well x1000” value [4, 14] was 36+/-5.1 DPM/Well x1000. The “%Inhibition” value [4, 15] was 62%, the “DPM/Well x1000” value [4, 15] was 39+/-4.6 DPM/Well x1000 and the “inhibition of ³H-thymidine incorporation into DNA” value ([4]; at a concentration of 6x10.⁻¹⁰ M, total incubation time 5 days) was “strong inhibitory effect”.
For “pGlu-His-Trp-Ser-Tyr-D-Lys[Cu⁺⁺) POL)₂(DL-A₂pr)]-Leu-Arg-Pro-Gly-NH₂ [XVIII]”, the “Hormonal activity* LH responses rel. to LHRH (= 1)” value [1] was 9, the “Binding affinity, Ka1 … of pituitary” value ([2]; Table 1, agonistic analogues) was 5.817 nM⁻¹ and the “Binding affinity, Ka1 … of cancer cells” value ([3]; Table 1, agonistic analogues) was 3.005 nM⁻¹.
For “pGlu-His-Trp-Ser-Tyr-D-Lys[(Cu²²)(CISAL)₂(DL-A₂pr)]-Leu-Arg-Pro-Gly-NH₂ [Example IX]”, the “Hormonal activity* LH responses rel. to LHRH (= 1)” value [1] was 10, the “Binding affinity, Ka1 … of pituitary” value ([2]; Table 1, agonistic analogues) was 8.625 nM⁻¹ and the “Binding affinity, Ka1 … of cancer cells” value ([3]; Table 1, agonistic analogues) was 3.995 nM⁻¹.
For “pGlu-His-Trp-Ser-Tyr-D-Lys[(Cu⁺⁺)(FUR)₂(DL-A₂pr)]-Leu-Arg-Pro-Gly-NH₂ [XVII]”, the “Hormonal activity* LH responses rel. to LHRH (= 1)” value [1] was 10, the “Binding affinity, Ka1 … of pituitary” value ([2]; Table 1, agonistic analogues) was 1.770 nM⁻¹ and the “Binding affinity, Ka1 … of cancer cells” value ([3]; Table 1, agonistic analogues) was 0.536 nM⁻¹.
With “pGlu-His-Trp-Ser-Tyr-D-Lys[(Cu⁺⁺)(SAL) 2(A₂pr)]-Leu-Arg-Pro-Gly-NH₂ [VIA]” the “Hormonal activity* LH responses rel. to LHRH (= 1)” value [1] was 12, the “Binding affinity, Ka1 … of pituitary” value ([2]; Table 1, agonistic analogues) was 3.051 nM⁻¹ and the “Binding affinity, Ka1 … of cancer cells” value ([3]; Table 1, agonistic analogues) was 1.348 nM⁻¹.
“pGlu-His-Trp-Ser-Tyr-D-Lys[(Cu⁺⁺)(POLP)₂(DL-A₂bu)]-Leu-Arg-Pro-Gly-NH₂ [Example XVI]” was tested, and the “Hormonal activity* LH responses rel. to LHRH (= 1)” value [1] was 1.5, the “Binding affinity, Ka1 … of pituitary” value ([2]; Table 1, agonistic analogues) was 9.751 nM⁻¹ and the “Binding affinity, Ka1 … of cancer cells” value ([3]; Table 1, agonistic analogues) was 5.038 nM⁻¹.
With “Ac-D-Nal(2)-D-Phe(4Cl)-D-Pal(3)-Ser-Arg-D-Lys[(PtCl₂)-A₂bu-Eac)]-Leu-Arg-Pro-D-Ala-NH₂ [XXVII]” the “Binding affinity, Ka1 … of cancer cells” value [3, 16] was 2.152 nM-¹.
For “pGlu-His-Trp-Ser-Tyr-D-Lys[Cu⁺⁺)(POLP) ₂(A₂pr)]-Leu-Arg-Pro-Gly-NH₂ [XIX]”, the “Hormonal activity* LH responses rel. to LHRH (= 1)” value [1] was 0.3, the “Binding affinity, Ka1 … of pituitary” value ([2]; Table 1, agonistic analogues) was 8.676 nM⁻¹ and the “Binding affinity, Ka1 … of cancer cells” value ([3]; Table 1, agonistic analogues) was 4.528 nM⁻¹.
With “Ac-D-Nal(2)-D-Phe(4Cl)-D-Trp-Ser-Arg-D-Lys[(Cu⁺⁺)(SAL)₂(DL-A₂pr)]-Leu-Arg-Pro-D-Ala-NH₂ [XII]” the “Binding affinity, Ka1 … of pituitary” value [2, 16] was 9.183 nM-¹, the “Binding affinity, Ka1 … of cancer cells” value [3, 16] was 4.951 nM-¹ and the “Hormonal activity* %Blockade of ovulation” value [5] was 20%.

— EP0364819A2, “LHRH analogs” (The Administrators of The Tulane Educational Fund, priority 1988, dated 1990)
